The record followed here is patent publication US11078203B2 (OGEDA SA, priority 2017, dated 2021).

SMILES strings stand for the structures. pIC50, pKi: −log10 of the molar value.

Test [1] deals with T1, human NK-3 receptor (Homo sapiens, UniProt P29371).
T1 sequence (P29371 1-465): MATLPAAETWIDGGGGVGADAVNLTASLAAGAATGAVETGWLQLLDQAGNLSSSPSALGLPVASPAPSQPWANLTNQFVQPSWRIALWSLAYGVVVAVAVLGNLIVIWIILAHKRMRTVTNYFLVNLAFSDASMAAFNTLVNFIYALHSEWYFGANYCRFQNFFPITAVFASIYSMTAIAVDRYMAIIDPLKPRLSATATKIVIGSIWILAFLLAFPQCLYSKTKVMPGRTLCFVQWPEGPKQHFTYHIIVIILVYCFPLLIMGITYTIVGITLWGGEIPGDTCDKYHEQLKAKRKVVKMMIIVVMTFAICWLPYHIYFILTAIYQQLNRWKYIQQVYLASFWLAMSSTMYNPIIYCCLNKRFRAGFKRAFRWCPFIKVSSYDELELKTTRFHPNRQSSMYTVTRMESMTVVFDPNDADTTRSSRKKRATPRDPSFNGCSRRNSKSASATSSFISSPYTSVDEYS
Briefly: cell-based.
Method: Aequorin Assay with Human NK-3 Receptor.
The efficacy of compounds of the invention to inhibit NKA-mediated NK-3 receptor activation was assessed by an in vitro Aequorin functional assay. Chinese Hamster Ovary recombinant cells expressing the human NK-3 receptor and a construct that encodes the photoprotein apoaequorin were used for this assay. In the presence of the cofactor coelenterazine, apoaequorin emits a measurable luminescence that is proportional to the amount of intracellular (cytoplasmic) free calcium.
The antagonist activity of compounds of the invention is measured following pre-incubation (3 minutes) of the compound (at various concentrations) with the cells, followed by addition of the reference agonist (NKA) at a final concentration equivalent to the EC80 (3 nM) and recording of emitted light (FDSS 6000 Hamamatsu) over the subsequent 90-second period. The intensity of the emitted light is integrated using the reader software. Compound antagonist activity is measured based on the concentration-dependent inhibition of the luminescence response to the addition of Neurokinin A.

Test [2] addresses T1, human NK-3 receptor. The test can be described thus: 3H-SB222200 binding competition assay with human NK-3 receptor. Set-up: expressed in transfected cells; membranes. The note with it: read-out: Competitive binding assay with human NK-3 receptor hNK-3 (Ki). As to the method: The affinity of compounds of the invention for the human NK-3 receptor was determined by measuring the ability of compounds of the invention to competitively and reversibly displace a well-characterized NK-3 radioligand in a concentration-dependent manner.
Membranes were prepared from Chinese hamster ovary recombinant cells stably expressing the human NK-3 receptor. The membranes were incubated with 5 nM ^3H-SB222200 (ARC) in a HEPES 25 mM/NaCl 0.1M/CaCl2 1 mM/MgCl2 5 mM/BSA 0.5%/Saponin 10 μg/ml buffer at pH 7.4 and various concentrations of compounds of the invention. The amount of ^3H-SB222200 bound to the receptor was determined after filtration by the quantification of membrane associated radioactivity using the TopCount-NXT reader (Packard).

What is called pIC50 is the negative decadic logarithm of the IC50, by convention in mol/L. Higher therefore signals a low IC50. What is called pKi is the negative decadic logarithm of the Ki, by convention in mol/L. Turning to `[2H]C([2H])([2H])c1nsc(-c2nnc3n2CCN(C(=O)c2ccc(F)cc2)[C@@H]3C)n1` [Deuterated fezolinetant, (R)-(4-fluorophenyl)-(8-methyl-3-(3-(methyl-d3)-1,2,4-thiadiazol-5-yl)-5,6-dihydro-[1,2,4]trizolo[4,3-a]pyrazin-7(8H)-yl)methanone], the pIC50 in test [1] is 7.89. Further, in test [2], the pKi was 7.77.
